Laboratory results taken from patent publication US20230357292A1, “MULTI-COORDINATE GOLD-PHOSPHINE COMPOUNDS AND METHOD OF USE” (University of Kentucky Research Foundation, priority 2020, published 2023).
Entries after “also recorded” stand apart in the source; their conditions may differ. Where two headings read alike, the source gives them in different places.

Tests used:
MDA-MB-231 cells [1] = conditions: live MDA-MB-231 cells, mito-stress test
Method: (§1) Analysis. The initial step of Seahorse XF96 analysis included optimization of the cell density. In this stage, isolated mitochondria (30 μg) or MDA-MB-231 cells were seeded at a range of densities from 2000 cells/well to 100,000 cells/well, followed by optimization of the FCCP injection concentration used (0.6 μM of 1.2 μM). […] All Seahorse XF96 experiments with MDA-MB-231 were performed under these conditions. The cells were seeded the night prior to the experiment with a final volume of 100 μL and incubated overnight at 37° C. AuPhos-89 was prepared as a stock in DMSO/DMEM (% v/v=20:80) and diluted to a working concentration of 100 μM with Seahorse XF96 assay buffer and then subsequently serial diluted by 10× to achieve multiple concentrations. The assay was performed using a pneumatic injection method of AuPhos-89, with the final injection concentrations of 0.01, 0.1, 1, and 10 μM. This was followed by injection of oligomycin (1.5 μM), FCCP (0.6 μM) and rotenone/antimycin A (0.5 μM).

[2] = system: isolated mitochondria from the liver of C57BL/6J mice; conditions: 1 μM, in the presence of oligomycin; dose-dependent up to about 10 μM
Method: as §1

[3] = 37° C.
Method: To determine the stability of gold compounds under physiological conditions in the presence of biological nucleophiles, UV absorbance measurements were conducted over a 24 h time period. Briefly, AuPhos was dissolved in media from a DMSO stock. To this solution was added 10 mM L-glutathione.
To study the stability of the gold(III) compounds in solution, the UV-vis profile of the representative compounds was evaluated in biologically relevant media at physiological temperature of 37° C. Given the common limitation of gold compounds to promiscuously bind thiol containing biomolecules, the interaction of gold(III) complex AuPhos89 was investigated with physiologically relevant concentration of L-glutathione (10 mM) in Dubelcco modified essential medium (DMEM).

MDA-MB-231 cells [4] = conditions: TMRE or JC-1 assay, short exposure periods
Method: MDA-MB-231 cells were plated at a density of 5×10^5 cells/plate in a 6 well plate and allowed to adhere overnight at 37° C. […] The cells were incubated (37° C., 5% CO2) for 1 h at this concentration. Carbonyl cyanide 3-chlorophenylhydrazone (CCCP) was prepared as a stock in DMSO and added at a final concentration of 100 μM, and the cells were treated for 1 h. It was used as a positive control. After the indicated treatment time, a working solution of the JC-1 dye (Cayman Chemicals, Cat. #15003) was prepared by adding 100 μL of dye into 900 μL of DMEM. Note: the working solution of JC-1 should always be prepared fresh and not stored for long-term use. Then, 100 μL/mL of working solution of the JC-1 dye was added to the cells and incubated at 37° C. for 20 minutes. The cells were harvested and resuspended in 2 mL PBS. The cells were analyzed on a flow cytometer with 488 nm excitation and appropriate emission filters. Gated cells, excluded debris and the CCCP-treated sample was used to performed standard compensation.

[5] = 10 mM in DMSO-d6, 24 h
Method: Stock solutions comprised of a 1 mL, 20 mM solution of AuPhos-89 in DMSO-d6. The solution of L-GSH (20 mM) was sonicated for 5 minutes to dissolve the reagent in DMSO-d6. 1 mL of each solution were mixed in a 1:1 ratio to produce a final concentration of 10 mM in DMSO-d6. The solution was then analyzed by 1H NMR spectroscopy. The solution was further analyzed at different time intervals, t=1 h, 6 h, 12 h, and 24 h.

4T1 tumor [6] = system: 4T1 tumor
Method: Female, 5 week-old BALB/c mice were purchased from Charles River Laboratories (Wilmington, MA). All mice were quarantined for 1 week prior to use and kept in micro-isolator cages (four mice per cage) in a temperature- and humidity-controlled environment as per the Division of Laboratory Animal Research (DLAR) of University of Kentucky. All mice were maintained in a pathogen-free environment under the care of DLAR of University of Kentucky. The study was performed in compliance with the NIH guidelines (NIH Publication No. 85-23 Rev. 1985) for the care and use of laboratory animals and all experimental procedures were monitored and approved by the Institutional Animal Care and Use Committee (IACUC) of University of Kentucky (USA).
The control group was injected with a PBS solution containing 1% DMSO and 1% Kolliphor.
A separate group of mice was administered equal volumes of vehicle control at the same time points and via the analogous route.

MDA-MB-231 (breast) = experiment: Cell viability, crystal violet assay, MDA-MB-231; assay type: cell-based, human
Excerpt: The plates were washed with water and dried again.

[7] = equimolar glutathione, aqueous solution, 24 h
Method: All spectra were recorded using an Agilent Technologies 1100 series HPLC instrument and an Agilent Phase Eclipse Plus C18 column (4.6 mm×100 mm; 3.5 μm particle size). AuPhos-89 and glutathione were prepared as 1 mM stock in DMSO and water, respectively. Equimolar amounts were mixed and the solutions were measured at 0, 1, 3, and 24 h by HPLC. The parameters used in the HPLC were as follows: flow rate, 1 mL/min; λ=280 nm; eluent A=H2O with 0.1% TFA; Eluent B═CH3CN with 0.05% HCOOH; Solvent gradient: 0 min (100:0 H2O:CH3CN), 10 min (0:100 H2O:CH3CN), 15 min (100:0 H2O:CH3CN).

[8] = system: 4T1 cells engineered to express RFP; conditions: 10 mg kg−1 day−1, six treatments, thrice a week, compared with controls
Excerpt: Murine TNBC 4T1 cells engineered to express RFP were also subcutaneously injected into flanks of immunocompromised mice in the presence of Matrigel.

MDA-MB-231 cells [9] = experiment: Western blotting of apoptotic markers and AMPK; conditions: 1 μM, indicated times
Method: Furthermore, to determine if AuPhos-89 induces apoptosis through the caspase-mediated apoptotic pathway, western blotting was performed to assess the induction of caspases and cleaved PARP (FIG. 7C). […] Global changes in proteins were investigated using quantitative proteomics after 12 h of exposing MDA-MB-231 cells to AuPhos-89 at 1 μM. In this tandem mass tag (TMT)-based quantification, protein was extracted from cryo-preserved cell pellets and following tryptic digestion, TMT-labeling was performed. After fractionation, tandem LC-MS/MS was conducted and database search against HUMAN protein database was carried out. Proteins of relative quantification were divided into two categories. A quantitative ratio over 1.5 was considered upregulation while a quantitative ratio less than 1/1.5 was considered as downregulation.

[10] = 10 mg kg−1 IV, 1 h and 24 h; heart, lung, liver, spleen, kidney, tumor
Method: With four mice inoculated with 4T1 (1,000,000 cells), after 20 days, AuPhos-89 was inserted into mice by IV administration (0.1 mL, 10 mg/kg). Each tissue was obtained by sacrificing the mice (n=2) 1 and 24 hours later. […] The solution turned yellow and diluted as needed to measure the gold content using a Graphite Furnace Atomic Absorption Spectrometer. Before measuring all samples, the standard solution curves were measured.
After respective time points of 1 h and 24 h, mice were euthanized. Organs including heart, lung, liver, spleen, kidney, and tumor were excised and the gold concentration was analyzed by GF-AAS.

4T1 tumor [11] = experiment: In vivo comparative experiment of AuPhos-89 and cisplatin, 4T1, IP; parameters: species or system BALB/c mice
Method: Mice were implanted with 2,000,000 4T1 cells subcutaneously on their flanks. […] The control group was injected with a PBS solution containing 1.5% DMSO and 12% Kolliphor. Injection and tumor-size/body-weight measurement was performed three days a week.
Mice organs (heart, lung, liver, kidney, spleen, and tumor) were fixed in freshly prepared paraformaldehyde (4% in PBS), the fixation time was 24 hours. And those processed for paraffin sectioning. The organs sections of 5 μm were stained with H&E staining and used for histological examination of the organs and tumor. A total of 5 sections per tissues (spanning the full depth of the organ) were examined and photographed using a Nikon Eclipse 55i microscope. […]

MDA-MB-231 cells [12] = conditions: 1 μM for 15 h, FACS
Method: MDA-MB-231 cells were seeded at a density of 5×10^5 cells/well in a 6-well clear bottom plate with a final media volume of 2 mL. The cells were allowed to adhere overnight at 37° C. A stock of AuPhos-89 was prepared fresh in DMSO/DMEM (% v/v=20:80) and added to the desired well at a concentration of 1 μM with a final volume of 2.5 mL and incubated for 15 h at 37° C. A stock of H2O2 was prepared in PBS and the cells treated at a final concentration of 2 mM for 3 hours and used as positive control. When ready for analysis, medium was removed and the wells washed with 5 mL of PBS. The cells were trypsinized (1 mL), 5 mL of DMEM were added to each well, and total volume collected and centrifuged to pellet the cells. The cells were resuspended in 2 mL of fresh media, counted, and reconstituted to a concentration of 1×10^5 cells/mL. The cells were centrifuged again, and the pellet suspended in 500 μL of Annexin binding buffer. To each sample was added 5 μl of Annexin V-FITC and 5 μl PI and incubated in the dark at room temperature for 5 minutes. The samples were then subjected to FACS analysis.

MDA-MB-231 cells [13] = conditions: 1 μM; 24 h, 48 h, 72 h
Method: MDA-MB-231 cells were seeded at a density of 5×10^5 cells/well in a 6-well clear bottom plate with a final media volume of 2 mL and allowed to adhere overnight 37° C. […] After the desired treatment period, the medium was removed and added to a 15 mL Falcon tube. The wells were washed with 5 mL of PBS and added to the Falcon tube. The cells were trypsinized (1 mL) and added 5 mL of fresh DMEM. All media were combined, and the tube centrifuged at 2000 rpm for 5 minutes to collect the pellet. The medium was decanted, and the pellet suspended in 1 mL of PBS, which was then transferred to a 1 mL Eppendorf tube, centrifuged at 2000 rpm for 5 minutes and suspended in 70% EtOH/PBS solution. These solutions were stored at 4° C. until ready for analysis. […] The cells were washed twice with PBS (1 mL) and suspended in a 50 μL of RNase solution (100 μg/mL) and 200 μL of a 50 μg/mL PI solution. The solutions were then filtered through a 5 mL polystyrene round-bottom tube fit with a cell-strainer cap. The samples were then analyzed with FACS.

[Cl-].[Cl][Au-]1([c]2ccccc2-c2ccccn2)[P+](c2ccccc2)(c2ccccc2)c2ccccc2[P+]1(c1ccccc1)c1ccccc1 [AuPhos-89, (2-phenylpyridine)[1,2-Bis(diphenylphosphino)benzene]gold(III) Dichloride]
ATP production (MDA-MB-231 cells [1]): diminished ATP production | proton leak (MDA-MB-231 cells [1]): acutely induced proton leak | mitochondrial oxygen consumption rate (OCR) [2]: increased oxygen consumption | stability, UV-vis absorption with L-glutathione ([3]; 10 mM L-glutathione in media (DMEM), 24 h): no alteration to the absorption band | stability, UV-vis absorption in RPMI-1640 ([3]; RPMI-1640, 24 h): no changes to the absorption spectra | mitochondrial membrane potential (MMP) (MDA-MB-231 cells [4]): depolarization of the MMP | stability with L-GSH, proton resonances [5]: minimally altered | tumor growth rate (4T1 tumor [6]; 10 mg kg−1 IV, 3 weekly injections, n=5, versus vehicle control): decreased significantly | body weight (4T1 tumor [6]; end of the observation period): did not exhibit significant change | IC50 (MDA-MB-231 (breast); MDA-MB-231 (breast), 4,000 cells/well, treated 72 h, mean ± SD (n = 3)): 450 ± 140 nM | IC50 (MDA-MB-231 (breast); cell line not stated at the place (structure-activity relationship studies)): 220 nM | stability with L-GSH, HPLC chromatogram [7]: little change | tumor growth [8]: significant attenuation of growth | induction of caspases, cleaved PARP and AMPK (MDA-MB-231 cells [9]): activate cleaved caspases, PARP and the cellular energy regulator, AMPK | tissue biodistribution, Au levels in organs [10]: confirmed the uptake | liver metastasis (H&E sections) (4T1 tumor [11]; 4T1 tumor-bearing mice, treated versus control): can inhibit liver metastasis; also recorded: not visible; also recorded: no palpable metastatic lesions | tumor inhibition compared with the control group (4T1 tumor [11]; AuPhos-89 10 mg kg−1 IP, cisplatin 3 mg kg−1 IP): significant tumor inhibition | body weight (4T1 tumor [11]; intraperitoneal administration): kept constant | survival (4T1 tumor [11]; mouse, in vivo, ip): increased rates of survival | tumor volume (4T1 tumor [11]; six treatments, thrice a week, IP, AuPhos-89 10 mg kg−1, cisplatin 3 mg/kg, versus vehicle control): reduced tumor volume | population of cells in early to late apoptosis (MDA-MB-231 cells [12]): ~40% | cell cycle distribution (MDA-MB-231 cells [13]): no significant changes to the cell cycle
